# Source: ChEMBL document CHEMBL1201862, “PubChem BioAssay data set” (2004)
# Calls of active or inactive are those of the source. Cut-off read from the data, not from the text of the source: actives have a measured IC50 and inactives only a lower limit.
# Target: Envelope glycoprotein gp160 (Human immunodeficiency virus 1, UniProt Q6QLK5)
# Assay: cell-free HIV fusion peptide-binding blockers – biochemical, uHTS, fluorescence dequenching, […] (AID 1986)
# Sequence of Envelope glycoprotein gp160 (Q6QLK5 whole entry, the tested form may be a part): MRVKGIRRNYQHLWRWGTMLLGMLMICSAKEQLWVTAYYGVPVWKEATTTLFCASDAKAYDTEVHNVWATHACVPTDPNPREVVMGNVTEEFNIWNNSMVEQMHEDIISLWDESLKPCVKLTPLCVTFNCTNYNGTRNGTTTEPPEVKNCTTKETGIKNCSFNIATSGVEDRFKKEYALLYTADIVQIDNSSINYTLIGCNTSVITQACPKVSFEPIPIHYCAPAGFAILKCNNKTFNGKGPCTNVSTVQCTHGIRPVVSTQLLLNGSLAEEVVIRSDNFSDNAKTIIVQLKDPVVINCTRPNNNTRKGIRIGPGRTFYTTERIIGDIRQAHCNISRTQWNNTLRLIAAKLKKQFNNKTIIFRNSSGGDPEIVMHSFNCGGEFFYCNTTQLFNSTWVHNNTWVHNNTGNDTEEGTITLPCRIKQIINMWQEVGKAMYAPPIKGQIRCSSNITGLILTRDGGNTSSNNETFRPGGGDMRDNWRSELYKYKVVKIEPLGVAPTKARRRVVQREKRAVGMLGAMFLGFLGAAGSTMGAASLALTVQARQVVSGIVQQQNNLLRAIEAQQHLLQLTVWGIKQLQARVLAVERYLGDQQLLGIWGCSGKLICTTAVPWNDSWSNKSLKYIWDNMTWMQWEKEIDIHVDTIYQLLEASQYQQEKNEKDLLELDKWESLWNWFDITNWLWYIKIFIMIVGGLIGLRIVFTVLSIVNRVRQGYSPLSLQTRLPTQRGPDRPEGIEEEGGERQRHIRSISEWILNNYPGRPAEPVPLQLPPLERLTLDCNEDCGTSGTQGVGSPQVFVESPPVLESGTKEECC
compound,measurement,value
O=C(O)CN1C(=O)/C(=C\c2ccccc2OCc2ccc(Cl)cc2Cl)SC1=S,IC50,16.1 µM (active)
